Each compound was assayed against c-Met kinase (h-Met; histidine-tagged c-Met catalytic domain fusion protein) (Homo sapiens (Human), UniProt P08581) (assay: In Vitro c-Met Kinase Enzyme Assays). Settings: phosphorylation of poly Glu-Tyr, 5 μM ATP, 25 minutes at 30° C.
Assay type: biochemical
Outline: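 His-tagged c-Met catalytic domain reacted 25 min at 30° C, within the linear initial-rate range. Phosphotyrosine detected by ELISA with peroxidase-labeled anti-phospho-tyrosine antibody and TMB, OD read at 450 nm (540 nm correction); IC50 from curve fit.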

c-Met kinase (h-Met; histidine-tagged c-Met catalytic domain fusion protein), sequence (P08581 1078-1345): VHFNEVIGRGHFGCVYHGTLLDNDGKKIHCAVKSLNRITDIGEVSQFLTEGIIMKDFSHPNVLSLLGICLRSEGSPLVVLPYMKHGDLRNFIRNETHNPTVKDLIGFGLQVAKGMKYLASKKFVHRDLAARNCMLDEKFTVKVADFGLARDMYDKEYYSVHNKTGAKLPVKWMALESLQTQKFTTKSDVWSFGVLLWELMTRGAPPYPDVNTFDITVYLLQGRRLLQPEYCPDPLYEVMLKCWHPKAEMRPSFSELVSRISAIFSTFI

IC50, < 500 nM:
CC(=O)N1CC=C(c2ccc(-c3cnc4ncc(C5(c6ccc7ncccc7c6)CC5)n4n3)cc2)CC1 [Example 96, 6-(1-{2-[4-(1-Acetyl-1,2,3,6-tetrahydropyridin-4-yl)phenyl]imidazo[1,2-b][1,2,4]triazin-7-yl}cyclopropyl)quinoline]
CS(=O)(=O)N1CC=C(c2ccc(-c3cnc4ncc(C5(c6ccc7ncccc7c6)CC5)n4n3)cc2)CC1 [Example 97, 6-[1-(2-{4-[1-(Methylsulfonyl)-1,2,3,6-tetrahydropyridin-4-yl]phenyl}imidazo[1,2-b][1,2,4]triazin-7-yl)cyclopropyl]quinoline]
CN(C)C(=O)c1ccc(-c2ccc(-c3cnc4ncc(C5(c6ccc7ncccc7c6)CC5)n4n3)cc2)cn1 [Example 98, N,N-Dimethyl-5-{4-[7-(1-quinolin-6-ylcyclopropyl)imidazo[1,2-b][1,2,4]triazin-2-yl]phenyl}pyridine-2-carboxamide]
c1cnc2ccc(C3(c4cnc5ncc(-c6ccc(-n7ccnc7)cc6)nn45)CC3)cc2c1 [Example 99, 6-(1-{2-[4-(1H-Imidazol-1-yl)phenyl]imidazo[1,2-b][1,2,4]triazin-7-yl}cyclopropyl)-quinoline]
O=C(N[C@H]1CC[C@H](O)CC1)c1ccc(-c2cnc3ncc(C4(c5ccc6ncccc6c5)CC4)n3n2)cc1F [Example 100, 2-Fluoro-N-(trans-4-hydroxycyclohexyl)-4-[7-(1-quinolin-6-ylcyclopropyl)imidazo[1,2-b][1,2,4]triazin-2-yl]benzamide]
O=C(NC1CC1)c1ccc(-c2cnc3ncc(C4(c5ccc6ncccc6c5)CC4)n3n2)cc1F [Example 101, N-Cyclopropyl-2-fluoro-4-[7-(1-quinolin-6-ylcyclopropyl)imidazo[1,2-b][1,2,4]triazin-2-yl]benzamide]
CNC(=O)c1ccc(-c2cnc3ncc(C4(c5ccc6ncccc6c5)CC4)n3n2)cc1F [Example 102, 2-Fluoro-N-methyl-4-[7-(1-quinolin-6-ylcyclopropyl)imidazo[1,2-b][1,2,4]triazin-2-yl]benzamide]
COCC1(NC(=O)c2ccc(-c3cnc4ncc(C5(c6ccc7ncccc7c6)CC5)n4n3)cc2F)CC1 [Example 103, 2-Fluoro-N-[1-(methoxymethyl)cyclopropyl]-4-[7-(1-quinolin-6-ylcyclopropyl)imidazo[1,2-b][1,2,4]triazin-2-yl]benzamide]
NC(=O)c1ccc(-c2cnc3ncc(C4(c5ccc6ncccc6c5)CC4)n3n2)cc1F [Example 104, 2-Fluoro-4-(7-(1-(quinolin-6-yl)cyclopropyl)imidazo[1,2-b][1,2,4]triazin-2-yl)benzamide]
O=C(NCC1CCCO1)c1ccc(-c2cnc3ncc(C4(c5ccc6ncccc6c5)CC4)n3n2)cc1 (stereo not shown) [Example 105, 4-[7-(1-Quinolin-6-ylcyclopropyl)imidazo[1,2-b][1,2,4]triazin-2-yl]-N-(tetrahydrofuran-2-ylmethyl)benzamide]
O=C(NCc1ccccn1)c1ccc(-c2cnc3ncc(C4(c5ccc6ncccc6c5)CC4)n3n2)cc1 [Example 106, N-(Pyridin-2-ylmethyl)-4-[7-(1-quinolin-6-ylcyclopropyl)imidazo[1,2-b][1,2,4]triazin-2-yl]benzamide]
O=C(NC1CC1)c1ccc(-c2cnc3ncc(C4(c5ccc6ncccc6c5)CC4)n3n2)cc1 [Example 107]
O=C(NC1CCC1)c1ccc(-c2cnc3ncc(C4(c5ccc6ncccc6c5)CC4)n3n2)cc1 [Example 108, N-Cyclobutyl-4-[7-(1-quinolin-6-ylcyclopropyl)imidazo[1,2-b][1,2,4]triazin-2-yl]benzamide]
O=C(NC1(c2ccccn2)CC1)c1ccc(-c2cnc3ncc(C4(c5ccc6ncccc6c5)CC4)n3n2)cc1 [Example 109, N-(1-Pyridin-2-ylcyclopropyl)-4-[7-(1-quinolin-6-ylcyclopropyl)imidazo[1,2-b][1,2,4]triazin-2-yl]benzamide]
CC(C)(CO)NC(=O)c1ccc(-c2cnc3ncc(C4(c5ccc6ncccc6c5)CC4)n3n2)cc1 [Example 110, N-(2-Hydroxy-1,1-dimethylethyl)-4-[7-(1-quinolin-6-ylcyclopropyl)imidazo[1,2-b][1,2,4]triazin-2-yl]benzamide]
O=C(N[C@H](CO)Cc1ccccc1)c1ccc(-c2cnc3ncc(C4(c5ccc6ncccc6c5)CC4)n3n2)cc1 [Example 111, N-[(1S)-1-Benzyl-2-hydroxyethyl]-4-[7-(1-quinolin-6-ylcyclopropyl)imidazo[1,2-b][1,2,4]triazin-2-yl]benzamide]
O=C(c1ccc(-c2cnc3ncc(C4(c5ccc6ncccc6c5)CC4)n3n2)cc1)N1CC[C@@H](O)C1 [Example 112, (3R)-1-{4-[7-(1-quinolin-6-ylcyclopropyl)imidazo[1,2-b][1,2,4]triazin-2-yl]benzoyl}pyrrolidin-3-ol]
O=C(NC1CCOCC1)c1ccc(-c2cnc3ncc(C4(c5ccc6ncccc6c5)CC4)n3n2)cc1 [Example 113, 4-(7-(1-(Quinolin-6-yl)cyclopropyl)imidazo[1,2-b][1,2,4]triazin-2-yl)-N-(tetrahydro-2H-pyran-4-yl)benzamide]
CN(C(=O)c1ccc(-c2cnc3ncc(C4(c5ccc6ncccc6c5)CC4)n3n2)cc1)C1CC1 [Example 114, N-Cyclopropyl-N-methyl-4-[7-(1-quinolin-6-ylcyclopropyl)imidazo[1,2-b][1,2,4]triazin-2-yl]benzamide]
COCC1(NC(=O)c2ccc(-c3cnc4ncc(C5(c6ccc7ncccc7c6)CC5)n4n3)cc2)CC1 [Example 115, N-[1-(Methoxymethyl)cyclopropyl]-4-[7-(1-quinolin-6-ylcyclopropyl)imidazo[1,2-b][1,2,4]triazin-2-yl]benzamide]
COCC1(NC(=O)c2ccc(-c3cnc4ncc(C5(c6ccc7ncccc7c6)CC5)n4n3)cc2)CCC1 [Example 116, N-[1-(Methoxymethyl)cyclobutyl]-4-[7-(1-quinolin-6-ylcyclopropyl)imidazo[1,2-b][1,2,4]triazin-2-yl]benzamide]
COC[C@@H](NC(=O)c1ccc(-c2cnc3ncc(C4(c5ccc6ncccc6c5)CC4)n3n2)cc1)C(C)C [Example 117]
COCC1(NC(=O)c2ccc(-c3cnc4ncc(C5(c6ccc7ncccc7c6)CC5)n4n3)cc2)CCOCC1 [Example 118]
O=C(Nc1nccs1)c1ccc(-c2cnc3ncc(C4(c5ccc6ncccc6c5)CC4)n3n2)cc1 [Example 119, 4-[7-(1-Quinolin-6-ylcyclopropyl)imidazo[1,2-b][1,2,4]triazin-2-yl]-N-1,3-thiazol-2-ylbenzamide]
C[C@H](COC(=O)N(C)C)NC(=O)c1ccc(-c2cnc3ncc(C4(c5ccc6ncccc6c5)CC4)n3n2)cc1 [Example 121]

— patent publication US9944645B2, “Imidazotriazines and imidazopyrimidines as kinase inhibitors” (Incyte Holdings Corporation, priority 2006, dated 2018)
